Experimental data reported in patent US8216551B2, “In vivo system to monitor tissue responses in birds” (The Board of Trustees of the University of Arkansas, priority 2008, dated 2012).

Experiments:
feather pulp [1] = assay: Local tissue response to LPS or PHA injected into feathers and wing webs; assay type: in vivo, chicken; settings: for composition of the infiltrate / MHC class II expression: 6 hours post-injection; for MHC class II expression: immunohistochemistry; for leukocyte infiltration: in vivo
feather pulp [2] = assay: Local tissue response to injection of IFN-γ into growing feathers; assay type: in vivo, chicken; settings: for mean score of extent of mononuclear infiltration: score 1=no infiltration

phytohaemagglutinin [PHA]
composition of the infiltrate (feather pulp [1]): heterophils and mononuclear cells | MHC class II expression (feather pulp [1]): substantially increased | leukocyte infiltration (feather pulp [1]): extensive leukocyte infiltration

lipopolysaccharide [LPS]
composition of the infiltrate (feather pulp [1]): primarily of heterophils | MHC class II expression (feather pulp [1]): noticeable increase | leukocyte infiltration (feather pulp [1]): extensive leukocyte infiltration

B1: IFN-γ: recombinant chicken IFN-γ (protein, UniProt P49708 20-164, looked up)
Interferon gamma: HTASSLNLVQLQDDIDKLKADFNSSHSDVADGGPIIVEKLKNWTERNEKRIILSQIVSMYLEMLENTDKSKPHIKHISEELYTLKNNLPDGVKKVKDIMDLAKLPMNDLRIQRKAANELFSILQKLVDPPSFKRKRSQSQRRCNC
mean score of extent of mononuclear infiltration (feather pulp [2]; 6 h post-injection, 5=extensive infiltration throughout the entire pulp): 1.6±0.1 | mean score of extent of mononuclear infiltration (feather pulp [2]; 1 day post-injection, 5=extensive): 4.0±0.5 | mean score of extent of mononuclear infiltration (feather pulp [2]; 2 days post-injection, 5=extensive): 3.2±0.6 | mean score of extent of mononuclear infiltration (feather pulp [2]; 3 days post-injection, 5=extensive): 3.0±0.9 | histological analysis, cell infiltration into the feather pulp (feather pulp [2]; by 6 h, preliminary): mononuclear cell infiltration into the feather pulp, but no granulocytes
